Our source for the IC50 values is patent US20080146555A1, “Uses of Kinase Inhibitors and Compositions Thereof” (GPC Biotech, Inc, priority 2004, published 2008).

Assay type in all cases: biochemical
One experiment deals with T1, Abl (c-Abl) (Homo sapiens, UniProt P00519).
T1 construct: purchased Upstate 14-529
The experiment in a line: Abl kinase assay. On the procedure: • 1. 5× Reaction Buffer: 40 mM MOPS, pH 7.0, 1 mM EDTA. • 2. Enzyme Dilution Buffer (EDB): 20 mM MOPS, pH 7.0, 1 mM EDTA, 0.01% Brij-35, 5% glycerol, 0.1% β-mercaptoethanol, 1 mg/ml BSA. • 3. Abl, active: Dilute to 0.2-8 ng/μl with EDB. Use 2.5-μl per assay point. • 4. […] Use 2.5 μl per assay point for a final assay concentration of 50 μM per assay point. • 5. [γ-^32P]ATP: Stock 1 mCi/100 μl (3000 Ci/mmol, obtained from PerkinElmer, Cat. # BLU002A). Make 10 μl aliquots (100 μCi/vial).
• 1. Add 5 μl of 5× Reaction Buffer per assay. • 2. Add 2.5 μl of Abltide (50 μM). • 3. Add 2.5 μl of Abl (human), active (0.5-20 ng). • 4. Add 5 μl sterile, distilled water. • 5. Add 10 μl of the diluted [γ-^32P]ATP solution. • 6. Incubate for 10 minutes at 30° C. • 7. Transfer a 20 μl aliquot onto the center of a 2 cm×2 cm P81 paper. • 8. […] Wash the assay squares once for 5 minutes with acetone. • 10. Transfer the assay squares to vial and add 5 ml scintillation cocktail. • 11. Read in scintillation counter. Compare cpm of enzyme samples to cpm of control samples that contain background control.

A further experiment concerns the target T2, Fes (Homo sapiens, UniProt P07332).
T2 construct: purchased Upstate 14-473
Description: Fes kinase assay. On the procedure: • 1. 2.5× Reaction Buffer: 50 mM MOPS, pH 7.0, 2.5 mM EDTA. • 2. Poly(Glu4-Tyr) (4:1): Prepare a 1 mg/ml stock in sterile distilled water. Add 2.5 μl per assay point for a final concentration of 0.1 mg/ml. • 3. Enzyme Dilution Buffer (EDB): 20 mM MOPS, pH 7.0, 1 mM EDTA, 5% glycerol, 0.01% Brij-35, 0.1% β-mercaptoethanol, 1 mg/ml BSA. • 4. Fes/Fps, active: Dilute to 4-40 ng/μl with EDB. Use 2.5 μl per assay. • 5. Magnesium/ATP Cocktail (Catalog #20-113): 75 mM MgCl2 and 500 μM ATP in 20 mM MOPS, pH 7.2, 25 mM β-glycerol phosphate, 5 mM EGTA, 1 mM sodium orthovanadate, 1 mM dithiothreitol. • 6. [γ-^32P]ATP: Stock 1 mCi/100 μl (3000 Ci/mmol, obtained from PerkinElmer, Catalog #LU002A). Make 10 μl aliquots (100 μCi/vial). Before starting the assay, dilute the Magnesium/ATP Cocktail 1:1 with sterile, distilled water. Then dilute an aliquot of [γ-^32P]ATP to 1 μCi/μl with 90 μl of the diluted Magnesium/ATP Cocktail. Use 10 μl per assay point for a final ATP concentration of 100 μM per assay point.
• 1. Add 10 μl of 2.5× Reaction Buffer per assay. • 3. Add 2.5 μl of Fes/Fps, active (10-100 ng). • 4. Add 10 μl of the diluted [γ-^32P]ATP mixture. • 5. Incubate for 10 minutes at 30° C. • 6. Spot 20 μl onto the center of a 2 cm×2 cm […]. • 7. Wash the assay squares three times for 5 minutes with 0.75% phosphoric acid. • 8. Wash the assay squares once for 5 minutes with acetone. • 9. Transfer the assay squares to vials and add 5 ml scintillation cocktail. • 10. Read in scintillation counter. Compare cpm of enzyme samples to cpm of control samples.

Another experiment addresses T3, MEK1 (Homo sapiens, UniProt Q02750).
T3 construct: purchased Upstate 14-429
Description: MEK1 kinase assay. On the procedure: 1. Assay Dilution Buffer I (ADBI, Catalog #20-108): 20 mM MOPS, pH 7.2, 25 mM β-glycerol phosphate, 5 mM EGTA, 1 mM sodium orthovanadate, 1 mM dithiothreitol. • 2. Magnesium/ATP Cocktail (Catalog #20-113): 500 μM cold ATP and 75 mM magnesium chloride in ADBI. • 3. MEK1, active: Dilute to 0.5-5 ng/μl with ADBI containing 0.03% Brij-35 and 1 mg/ml BSA. Use 5 μl per assay point. • 4. MAP Kinase 2/Erk2, unactive (Catalog #14-198): Use 1 μg per assay point. • 5. MBP Substrate (Catalog #13-104): Prepare a 3.33 mg/ml stock solution with ADBI. Use 2.5 μl per assay for a final concentration of 0.33 mg/ml per assay point. • 6. Magnesium/ATP Cocktail (Catalog #20-113): 75 mM MgCl2 and 500 μM ATP in 20 mM MOPS, pH 7.2, 25 mM β-glycerol phosphate, 5 mM EGTA, 1 mM sodium orthovanadate, 1 mM dithiothreitol.
7. [γ-^32P]ATP: Stock 1 mCi/100 μl (3000 Ci/mmol, obtained from Perkin Elmer, Catalog #BLU002A). Make 10 μl aliquots (100 μCi/vial). Before starting the assay, dilute the Magnesium/ATP Cocktail 1:1 with sterile, distilled water. Then dilute an aliquot of [γ-^32P]ATP to 1 μCi/μl with 90 μl of the diluted Magnesium/ATP Cocktail. […]
• 1. Add 1 μl of ADBI to a microcentrifuge tube. • 2. Add 5 μl of Magnesium/ATP cocktail. • 3. Add 5 μl of MEK1, active (2.5-25 ng) • 4. Add 4 μl (1 μg) of unactive MAP Kinase 2/Erk 2. • 5. Incubate at 30° C. for 30 minutes. • 6. Remove 1 μl of this mixture and add to Stage Two component mixture.
• 1. Add 12.5 μl of ADBI. • 2. Add 2.5 μl of MBP stock solution. • 3. Add 10 μl of diluted [γ-^32P] ATP. • 4. Incubate for at 30° C. 10 minutes. • 5. Transfer a 20 μl aliquot onto the center of a 2 cm×2 cm P81 paper square. • 6. Wash the paper squares three times with 0.75% phosphoric acid for 5 minutes per wash. • 7. Wash the paper squares once with acetone for five minutes. • 8. Transfer the paper squares to a scintillation vial and add 5 ml scintillation cocktail. • 9. Read in scintillation counter. Compare cpm of enzyme samples to cpm of control samples that contain no enzyme (background control).

Setting [1] is: Table II, read-out: ABL1 Inhibition (IC50).
Setting [2] is: read-out: Abl (wild-type c-Abl) IC50.
The mark [3] stands for this setting: read-out: FES Inhibition (IC50).
Setting [4] is: kinase panel, 10 μM ATP, read-out: MAPK 1 / MEK1 IC50.
[5] abbreviates: read-out: MAP2K1 Inhibition (IC50).

Where a name gives a salt, the structure may show the parent alone. Read-outs that look alike come from different tables or passages of the source.

T3 sequence (Q02750 whole entry, species assumed): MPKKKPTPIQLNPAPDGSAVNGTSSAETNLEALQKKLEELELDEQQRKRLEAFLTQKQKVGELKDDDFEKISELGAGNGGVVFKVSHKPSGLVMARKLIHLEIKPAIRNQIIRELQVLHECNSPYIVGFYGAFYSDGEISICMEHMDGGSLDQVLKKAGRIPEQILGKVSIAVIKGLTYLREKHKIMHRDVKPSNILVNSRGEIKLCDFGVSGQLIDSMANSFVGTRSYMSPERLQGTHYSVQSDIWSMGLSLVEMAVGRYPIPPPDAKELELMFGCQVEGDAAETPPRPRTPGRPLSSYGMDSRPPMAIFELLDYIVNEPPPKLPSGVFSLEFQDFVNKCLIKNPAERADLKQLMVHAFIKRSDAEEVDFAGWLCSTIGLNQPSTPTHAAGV
T2 sequence (P07332 whole entry): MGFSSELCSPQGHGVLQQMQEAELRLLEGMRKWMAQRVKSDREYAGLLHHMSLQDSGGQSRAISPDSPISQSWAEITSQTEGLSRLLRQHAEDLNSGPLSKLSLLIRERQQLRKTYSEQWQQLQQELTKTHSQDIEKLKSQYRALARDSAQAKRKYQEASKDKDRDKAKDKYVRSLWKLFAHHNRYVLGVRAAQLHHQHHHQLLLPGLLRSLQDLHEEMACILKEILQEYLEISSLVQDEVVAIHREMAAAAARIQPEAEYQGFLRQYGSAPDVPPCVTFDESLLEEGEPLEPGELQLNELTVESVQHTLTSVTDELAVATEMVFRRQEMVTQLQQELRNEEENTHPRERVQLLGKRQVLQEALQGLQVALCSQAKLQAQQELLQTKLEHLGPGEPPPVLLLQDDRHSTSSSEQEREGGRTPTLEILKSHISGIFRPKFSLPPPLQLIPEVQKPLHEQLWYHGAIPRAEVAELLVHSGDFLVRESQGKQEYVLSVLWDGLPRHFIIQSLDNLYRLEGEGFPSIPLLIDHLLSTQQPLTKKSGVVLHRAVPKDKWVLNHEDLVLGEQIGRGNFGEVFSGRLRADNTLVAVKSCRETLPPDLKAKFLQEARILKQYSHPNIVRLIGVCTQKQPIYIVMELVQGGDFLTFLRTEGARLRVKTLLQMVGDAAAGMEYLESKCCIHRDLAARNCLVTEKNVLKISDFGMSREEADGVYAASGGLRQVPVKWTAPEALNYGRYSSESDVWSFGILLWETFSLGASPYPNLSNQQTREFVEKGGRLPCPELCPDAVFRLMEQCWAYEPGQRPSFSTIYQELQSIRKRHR
T1 sequence (P00519 whole entry): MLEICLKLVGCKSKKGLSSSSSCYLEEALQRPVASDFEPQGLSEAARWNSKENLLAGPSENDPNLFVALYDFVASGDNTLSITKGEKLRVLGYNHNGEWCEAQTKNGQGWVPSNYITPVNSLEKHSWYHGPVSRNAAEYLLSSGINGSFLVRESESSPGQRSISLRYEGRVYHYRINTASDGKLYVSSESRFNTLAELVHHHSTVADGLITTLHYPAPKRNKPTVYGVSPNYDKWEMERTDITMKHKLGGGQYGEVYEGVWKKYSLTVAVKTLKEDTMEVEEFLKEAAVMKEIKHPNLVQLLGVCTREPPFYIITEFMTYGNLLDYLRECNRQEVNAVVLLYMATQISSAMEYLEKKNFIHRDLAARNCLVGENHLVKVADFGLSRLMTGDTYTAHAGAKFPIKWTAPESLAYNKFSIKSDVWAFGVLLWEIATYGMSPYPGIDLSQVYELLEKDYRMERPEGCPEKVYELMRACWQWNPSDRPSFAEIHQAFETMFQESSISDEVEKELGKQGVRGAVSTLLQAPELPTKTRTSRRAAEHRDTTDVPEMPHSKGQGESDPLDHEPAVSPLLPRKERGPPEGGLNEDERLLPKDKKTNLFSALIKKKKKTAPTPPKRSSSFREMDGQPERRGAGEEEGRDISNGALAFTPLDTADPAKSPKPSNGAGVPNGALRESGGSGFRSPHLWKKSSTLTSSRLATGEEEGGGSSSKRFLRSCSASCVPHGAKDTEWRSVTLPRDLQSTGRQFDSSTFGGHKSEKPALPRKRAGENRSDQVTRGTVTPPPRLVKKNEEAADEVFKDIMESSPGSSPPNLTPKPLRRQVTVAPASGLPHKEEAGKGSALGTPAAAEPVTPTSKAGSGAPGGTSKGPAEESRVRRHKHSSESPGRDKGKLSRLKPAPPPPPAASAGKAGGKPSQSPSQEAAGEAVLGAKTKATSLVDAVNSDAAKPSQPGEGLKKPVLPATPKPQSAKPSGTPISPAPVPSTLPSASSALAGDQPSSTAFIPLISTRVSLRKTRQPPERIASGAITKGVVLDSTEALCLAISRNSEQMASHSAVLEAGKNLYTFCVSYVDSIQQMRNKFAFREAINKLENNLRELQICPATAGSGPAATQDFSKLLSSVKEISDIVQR

On to `CC(C)N1CCN(C(=O)COc2ccc(-c3n[nH]c4c3C(=O)c3c(NC(=O)NN5CCOCC5)cccc3-4)cc2)CC1` [Compound A37], for which the IC50 is 35 nM on Abl (c-Abl) (Table AA, read-out: Abl IC50); below 50 nM at Abl (c-Abl) (setting [1]); below 50 nM at Abl (c-Abl) (setting [2]); below 100 nM at Fes (setting [3]); 10 to 100 nM at MEK1 (setting [4]); below 50 nM at MEK1 (setting [5]).
As to `COCCN1CCN(Cc2ccc(-c3n[nH]c4c3C(=O)c3c(NC(=O)NN5CCOCC5)cccc3-4)cc2)CC1` [Compound B16, N-[3-(4-{[4-(2-methoxyethyl)piperazinyl]methyl}phenyl)-4-oxoindeno[2,3-d]pyrazol-5-yl](morpholin-4-ylamino)carboxamide dihydrochloride], the IC50 at Abl (c-Abl) (Table AA, read-out: Abl IC50) is 52 nM; on Abl (c-Abl) (setting [1]), below 100 nM; on Abl (c-Abl) (setting [2]), below 100 nM; at Fes (kinase panel, read-out: Fes IC50), below 100 nM; on Fes (setting [3]), below 100 nM; at MEK1 (setting [4]), below 100 nM. In addition, the IC50 on MEK1 (setting [5]) is below 100 nM.
